Measured values as given in patent US9695155B2, “Herbicidal substituted pyrimidinyloxy benzene compounds” (E. I. DU PONT DE NEMOURS AND COMPANY, priority 2013, dated 2017).
Read-outs that look alike come from different tables or passages of the source.

Experiments:
yellow nutsedge = experiment: Test C postemergence; assay type: in vivo, Cyperus esculentus; details: for pest or weed control at 16 g/ha / pest or weed control at 125 g/ha / pest or weed control at 62 g/ha: Cyperus, post-emergence; for pest or weed control at 16 g/ha: 16 g ai/ha, 0 is no effect, 100 is complete control, read-out: Plant response rating (0 to 100), Nutsedge, Yellow; for pest or weed control at 125 g/ha: 125 g ai/ha; for pest or weed control at 125 g/ha / pest or weed control at 62 g/ha: read-out: Plant response rating, Nutsedge, Yellow; for pest or weed control at 62 g/ha: Postemergence, 62 g ai/ha
Outline: (§1)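 Preemergence: seeds sown in a loam soil–sand blend and sprayed with test chemical in a non-phytotoxic solvent mixture containing surfactant. Postemergence: plants at 2 to 18 cm (1- to 4-leaf stage) in peat-based medium, treated with the same formulation. Greenhouse 13 to 15 days, then visual rating 0 (no effect) to 100 (complete control).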

johnsongrass = experiment: Test C postemergence; assay type: in vivo, Sorghum halepense; details: for pest or weed control at 16 g/ha / pest or weed control at 125 g/ha / pest or weed control at 62 g/ha: Sorghum halepense, post-emergence; for pest or weed control at 16 g/ha: 16 g ai/ha, 0 is no effect, 100 is complete control, read-out: Plant response rating (0 to 100), Johnsongrass; for pest or weed control at 125 g/ha: 125 g ai/ha; for pest or weed control at 125 g/ha / pest or weed control at 62 g/ha: read-out: Plant response rating, Johnsongrass; for pest or weed control at 62 g/ha: Postemergence, 62 g ai/ha
Outline: as §1

giant foxtail [1] = experiment: Test C postemergence; assay type: in vivo, Setaria faberii; details: Setaria faberi, post-emergence; for pest or weed control at 16 g/ha: 16 g ai/ha, 0 is no effect, 100 is complete control, read-out: Plant response rating (0 to 100), Foxtail, Giant; for pest or weed control at 125 g/ha: 125 g ai/ha; for pest or weed control at 125 g/ha / pest or weed control at 62 g/ha: read-out: Plant response rating, Foxtail, Giant; for pest or weed control at 62 g/ha: Postemergence, 62 g ai/ha
Outline: as §1

large (Lg) crabgrass = experiment: Test C postemergence; assay type: in vivo, Digitaria sanguinalis; details: Digitaria sanguinalis, post-emergence; for pest or weed control at 16 g/ha: 16 g ai/ha, 0 is no effect, 100 is complete control, read-out: Plant response rating (0 to 100), Crabgrass, Large; for pest or weed control at 125 g/ha: 125 g ai/ha; for pest or weed control at 125 g/ha / pest or weed control at 62 g/ha: read-out: Plant response rating, Crabgrass, Large; for pest or weed control at 62 g/ha: Postemergence, 62 g ai/ha
Outline: as §1

chickweed = experiment: Test C postemergence; assay type: in vivo, Stellaria media; details: Stellaria media, post-emergence; for pest or weed control at 16 g/ha: 16 g ai/ha, 0 is no effect, 100 is complete control, read-out: Plant response rating (0 to 100), Chickweed; for pest or weed control at 125 g/ha: 125 g ai/ha; for pest or weed control at 125 g/ha / pest or weed control at 62 g/ha: read-out: Plant response rating, Chickweed; for pest or weed control at 62 g/ha: Postemergence, 62 g ai/ha
Outline: as §1

corn = experiment: Test C postemergence; assay type: in vivo, Zea mays; details: Zea mays, post-emergence; for plant injury at 16 g/ha: 16 g ai/ha, 0 is no effect, 100 is complete control, read-out: Plant response rating (0 to 100), Corn; for Corn plant response rating (crop injury, 0 = no effect, 100 = complete kill) at 125 g/ha: 125 g ai/ha; for Corn plant response rating (crop injury, 0 = no effect, 100 = complete kill) at 62 g/ha: Postemergence, 62 g ai/ha
Outline: as §1

Italian ryegrass = experiment: Test C postemergence; assay type: in vivo, Lolium multiflorum; details: for pest or weed control at 16 g/ha / pest or weed control at 125 g/ha / pest or weed control at 62 g/ha: Lolium multiflorum, post-emergence; for pest or weed control at 16 g/ha: 16 g ai/ha, 0 is no effect, 100 is complete control, read-out: Plant response rating (0 to 100), Ryegrass, Italian; for pest or weed control at 125 g/ha: 125 g ai/ha; for pest or weed control at 125 g/ha / pest or weed control at 62 g/ha: read-out: Plant response rating, Ryegrass, Italian; for pest or weed control at 62 g/ha: Postemergence, 62 g ai/ha
Outline: as §1

blackgrass = experiment: Test C postemergence; assay type: in vivo, Alopecurus myosuroides; details: Alopecurus myosuroides, post-emergence; for pest or weed control at 16 g/ha: 16 g ai/ha, 0 is no effect, 100 is complete control, read-out: Plant response rating (0 to 100), Blackgrass; for pest or weed control at 125 g/ha: 125 g ai/ha; for pest or weed control at 125 g/ha / pest or weed control at 31 g/ha / pest or weed control at 62 g/ha: scale 0 to 100 (0 no effect, 100 complete control); for pest or weed control at 31 g/ha: 31 g ai/ha, 13 to 15 days; for pest or weed control at 62 g/ha: 62 g ai/ha
Outline: as §1

waterhemp = experiment: Test C postemergence; assay type: in vivo, Amaranthus rudis; details: for pest or weed control at 16 g/ha / pest or weed control at 125 g/ha / pest or weed control at 62 g/ha: Amaranthus tuberculatus, post-emergence; for pest or weed control at 16 g/ha: 16 g ai/ha, 0 is no effect, 100 is complete control, read-out: Plant response rating (0 to 100), Waterhemp; for pest or weed control at 125 g/ha: 125 g ai/ha; for pest or weed control at 125 g/ha / pest or weed control at 62 g/ha: read-out: Plant response rating, Waterhemp; for pest or weed control at 62 g/ha: Postemergence, 62 g ai/ha
Outline: as §1

wild oat = experiment: Test C postemergence; assay type: in vivo, Avena fatua; details: for pest or weed control at 16 g/ha / pest or weed control at 125 g/ha / pest or weed control at 62 g/ha: Avena fatua, post-emergence; for pest or weed control at 16 g/ha: 16 g ai/ha, 0 is no effect, 100 is complete control, read-out: Plant response rating (0 to 100), Oat, Wild; for pest or weed control at 125 g/ha: 125 g ai/ha; for pest or weed control at 125 g/ha / pest or weed control at 62 g/ha: read-out: Plant response rating, Oat, Wild; for pest or weed control at 62 g/ha: Postemergence, 62 g ai/ha
Outline: as §1

giant foxtail [2] = experiment: Test A preemergence; assay type: in vivo, Setaria faberii; details: Setaria faberi, pre-emergence, 240 h, 0 to 100 scale where 0 is no effect and 100 is complete control; for pest or weed control at 125 g/ha: 125 g ai/ha
Outline: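 Compounds in non-phytotoxic solvent with surfactant applied as soil spray preemergence, or postemergence to plants 2-10 cm at one- to two-leaf stage, in loam/sand. After approximately 10 days in greenhouse, injury rated visually versus untreated controls, 0 (no effect) to 100 (complete control).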

[3] = postemergence, visual rating, scale 0 to 100 (0 no effect, 100 complete control)
[4] = scale 0 to 100 (0 no effect, 100 complete control)
[5] = postemergence, visual rating, read-out: Plant response rating, Blackgrass
[6] = Postemergence, read-out: Plant response rating, Blackgrass
[7] = read-out: Plant response rating, Foxtail, Giant
[8] = 31 g ai/ha, postemergence, visual rating, scale 0 to 100 (0 no effect, 100 complete control), 13 to 15 days

## Fc1cccc(Oc2ncc(Cl)cn2)c1-n1cc(C(F)F)nn1 [Compound 141, 5-chloro-2-[2-[4-(difluoromethyl)-1H-1,2,3-triazol-1-yl]-3-fluorophenoxy]pyrimidine]
Yellow nutsedge; postemergence
  pest or weed control at 16 g/ha: 10%
Yellow nutsedge; [3]
  pest or weed control at 125 g/ha: 15%
Yellow nutsedge; [4]
  pest or weed control at 62 g/ha: 15%
johnsongrass; postemergence
  pest or weed control at 16 g/ha: 5%
johnsongrass; [3]
  pest or weed control at 125 g/ha: 30%
johnsongrass; [4]
  pest or weed control at 62 g/ha: 10%
Giant foxtail [1]; postemergence
  pest or weed control at 16 g/ha: 10%
Giant foxtail [1]; [3]
  pest or weed control at 125 g/ha: 70%
Giant foxtail [1]; [4]
  pest or weed control at 62 g/ha: 45%
Large (Lg) crabgrass; postemergence
  pest or weed control at 16 g/ha: 5%
Large (Lg) crabgrass; [3]
  pest or weed control at 125 g/ha: 45%
Large (Lg) crabgrass; [4]
  pest or weed control at 62 g/ha: 10%
chickweed; postemergence
  pest or weed control at 16 g/ha: 70%
chickweed; [3]
  pest or weed control at 125 g/ha: 100%
chickweed; [4]
  pest or weed control at 62 g/ha: 95%
corn; postemergence
  plant injury at 16 g/ha: 5%
corn; [3]
  Corn plant response rating (crop injury, 0 = no effect, 100 = complete kill) at 125 g/ha: 20%
corn; [4]
  Corn plant response rating (crop injury, 0 = no effect, 100 = complete kill) at 62 g/ha: 5%
Italian ryegrass; postemergence
  pest or weed control at 16 g/ha: 0%
Italian ryegrass; [3]
  pest or weed control at 125 g/ha: 40%
Italian ryegrass; [4]
  pest or weed control at 62 g/ha: 5%
blackgrass; postemergence
  pest or weed control at 16 g/ha: 5%
blackgrass; [5]
  pest or weed control at 125 g/ha: 60%
blackgrass; [6]
  pest or weed control at 31 g/ha: 35%
  pest or weed control at 62 g/ha: 35%
waterhemp; postemergence
  pest or weed control at 16 g/ha: 85%
waterhemp; [3]
  pest or weed control at 125 g/ha: 100%
waterhemp; [4]
  pest or weed control at 62 g/ha: 100%
Wild oat; postemergence
  pest or weed control at 16 g/ha: 0%
Wild oat; [3]
  pest or weed control at 125 g/ha: 30%
Wild oat; [4]
  pest or weed control at 62 g/ha: 10%
Giant foxtail [2]; 31 g ai/ha, visual, approximately 10 days, read-out: Plant response rating, Foxtail, Giant
  pest or weed control at 31 g/ha: 100%
Giant foxtail [2]; [7]
  pest or weed control at 125 g/ha: 100%

## FC(F)c1cn(-c2ccccc2Oc2ncc(Cl)cn2)nn1 [Compound 147, 5-chloro-2-[2-[4-(difluoromethyl)-1H-1,2,3-triazol-1-yl]phenoxy]pyrimidine]
Yellow nutsedge; [8]
  Nutsedge, Yellow plant response rating: 0
Yellow nutsedge; postemergence
  pest or weed control at 16 g/ha: 0%
Yellow nutsedge; [3]
  pest or weed control at 125 g/ha: 5%
Yellow nutsedge; [4]
  pest or weed control at 62 g/ha: 0%
johnsongrass; [8]
  Johnsongrass plant response rating: 5
johnsongrass; postemergence
  pest or weed control at 16 g/ha: 5%
johnsongrass; [3]
  pest or weed control at 125 g/ha: 10%
johnsongrass; [4]
  pest or weed control at 62 g/ha: 5%
Giant foxtail [1]; postemergence
  pest or weed control at 16 g/ha: 0%
Giant foxtail [1]; 31 g ai/ha, postemergence, visual rating, scale 0 to 100 (0 no effect, 100 complete control), 13 to 15 days, read-out: Foxtail, Giant plant response rating
  pest or weed control at 31 g/ha: 0%
Giant foxtail [1]; [3]
  pest or weed control at 125 g/ha: 50%
Giant foxtail [1]; [4]
  pest or weed control at 62 g/ha: 20%
Large (Lg) crabgrass; postemergence
  pest or weed control at 16 g/ha: 5%
Large (Lg) crabgrass; 31 g ai/ha, postemergence, visual rating, scale 0 to 100 (0 no effect, 100 complete control), 13 to 15 days, read-out: Crabgrass, Large plant response rating
  pest or weed control at 31 g/ha: 5%
Large (Lg) crabgrass; [3]
  pest or weed control at 125 g/ha: 10%
Large (Lg) crabgrass; [4]
  pest or weed control at 62 g/ha: 10%
chickweed; postemergence
  pest or weed control at 16 g/ha: 15%
chickweed; 31 g ai/ha, postemergence, visual rating, scale 0 to 100 (0 no effect, 100 complete control), 13 to 15 days, read-out: Chickweed plant response rating
  pest or weed control at 31 g/ha: 70%
chickweed; [3]
  pest or weed control at 125 g/ha: 90%
chickweed; [4]
  pest or weed control at 62 g/ha: 75%
corn; postemergence
  plant injury at 16 g/ha: 5%
corn; 31 g ai/ha, postemergence, visual rating, scale 0 to 100 (0 no effect, 100 complete control), 13 to 15 days, read-out: Corn plant response rating
  plant injury at 31 g/ha: 5%
corn; [3]
  Corn plant response rating (crop injury, 0 = no effect, 100 = complete kill) at 125 g/ha: 10%
corn; [4]
  Corn plant response rating (crop injury, 0 = no effect, 100 = complete kill) at 62 g/ha: 5%
Italian ryegrass; [8]
  Ryegrass, Italian plant response rating: 0
Italian ryegrass; postemergence
  pest or weed control at 16 g/ha: 0%
Italian ryegrass; [3]
  pest or weed control at 125 g/ha: 5%
Italian ryegrass; [4]
  pest or weed control at 62 g/ha: 0%
blackgrass; postemergence
  pest or weed control at 16 g/ha: 0%
blackgrass; postemergence, visual rating, read-out: Blackgrass plant response rating
  pest or weed control at 31 g/ha: 0%
blackgrass; [5]
  pest or weed control at 125 g/ha: 10%
blackgrass; [6]
  pest or weed control at 62 g/ha: 0%
waterhemp; [8]
  Waterhemp plant response rating: 55
waterhemp; postemergence
  pest or weed control at 16 g/ha: 40%
waterhemp; [3]
  pest or weed control at 125 g/ha: 70%
waterhemp; [4]
  pest or weed control at 62 g/ha: 85%
Wild oat; [8]
  Oat, Wild plant response rating: 0
Wild oat; postemergence
  pest or weed control at 16 g/ha: 0%
Wild oat; [3]
  pest or weed control at 125 g/ha: 5%
Wild oat; [4]
  pest or weed control at 62 g/ha: 0%
Giant foxtail [2]; [7]
  pest or weed control at 125 g/ha: 100%
Giant foxtail [2]; 500 g ai/ha, read-out: Foxtail, Giant plant response rating
  pest or weed control at 500 g/ha: 100%
